Reference: a melting point compilation (Tetko et al.; mined from patent text by program, amines drawn as free bases though some values may be those of a salt)

SMILES | melting point [°C]
COc1ccc(-c2cc(-c3ccc(-c4c(Cc5ccccc5)sc5ccccc45)cc3)ccc2OCC(=O)O)cc1OC | 95 to 97
CCc1nc2c(N)nc3cc(CCC#N)ccc3c2n1CC1CCOCC1 | 273 to 275
Cc1c(C)c2c(c(C)c1OCc1ccccc1)CCC(C)(CC=O)O2 (configuration not stated) | 70 to 75
CCCc1nc2cnc3ccccc3c2n1CCCCNS(C)(=O)=O | 133 to 135
COC(=O)c1cc(C(C)C)sc1NC(=O)Nc1ccc(C)cc1 | 49 to 51
CCN(CC)C(=O)Cc1ccc(O)c(C(C)(C)C)c1 | 124 to 126
COc1ccc(Cc2nc(C(C)=O)c[nH]2)cc1 | 147 to 148
CN(c1cccc2cc(C3=NCC(CCN4C(=O)CCC4=O)S3)[nH]c12)S(=O)(=O)c1cccs1 (configuration not stated) | 189 to 191
COc1cc2c(cc1OC)CN(c1nc(Cl)nc(N3CCc4cc(OC)c(OC)cc4C3)n1)CC2 | 149 to 151
O=C1NC(=O)C2(C=Cc3c(Cl)sc(Cl)c32)N1 (configuration not stated) | 239 to 241
O=C(OCc1ccccc1)C1=C(c2ccccc2)C(c2ccccc2)OC1=O (configuration not stated) | 111 to 114
O=C(CCc1cccc2[nH]ccc12)c1ccccc1OCCN1CCCCC1 | 78
CCOC(=O)c1c(N2CCN(C(=O)c3cccs3)CC2)c2cccnc2n(CC(=O)c2ccccc2)c1=O | 115
Cn1c(C(F)(F)F)ccc(-c2c(F)cc(Cl)c3occc23)c1=O | 178 to 179
COC(=O)c1ccc(N(N)C(C)=O)c(N)c1 | 175 to 178
COc1ccc(F)cc1NC(=O)Nc1ccc(N2CCN(C(=O)Nc3ccc(OCCO)cc3C(F)(F)F)CC2)cc1 | 140 to 141
O=[N+]([O-])c1ccc2nc3c(nc2c1)N1CCCCC1CO3 (configuration not stated) | 226 to 229
CCCN(CCC)S(=O)(=O)c1cccc(C2(O)CCC(=O)N2C)c1 (configuration not stated) | 58 to 60
COC(=O)NCCCCC1CCSS1 (configuration not stated) | 31 to 32
CC12CC(=O)NN=C1c1ccc(C#N)cc1C2 (configuration not stated) | 254
O=C(c1nc2ccccc2n1Cc1ccc(F)cc1)C1CCN(CCC2(Cc3ccc(C(F)(F)F)cc3)CCN(Cc3ccccc3)C2=O)CC1 (configuration not stated) | 104 to 106
Cc1ccc(S(=O)(=O)N(c2ccc(C#N)cc2[N+](=O)[O-])C(C)C)cc1 | 125 to 126
CCc1cc(C(C)=O)c(O)cc1OCCCCCNC(C)=O | 115 to 116
COCCn1nc2c(N)nc3ccccc3c2c1CC(C)(C)C#N | 206 to 208
COc1ccc(COc2c(C)c(C)c3c(c2C)C(c2ccc(N(C)C)cc2)C(C)(C)O3)cc1 (configuration not stated) | 105 to 107

SMILES | melting point [°C]
CCCCCCCCCCCCn1nnc(C(C(=O)Nc2c(OC)cc(OC)cc2OC)c2ccccc2)n1 (configuration not stated) | 119 to 120
N#Cc1ccc(C2NCCS2)cc1 (configuration not stated) | 57 to 58
CC1(C)CCN(c2cccc(-c3cnc4[nH]cc(C(=O)C(C)(C)C)c4n3)c2)C1 | 233 to 235
CC(C)(C)C(O)(C=Cc1ccc(Cl)cc1)n1cncn1 (configuration not stated) | 139 to 141
O=C(O)Cc1cccc2c(-c3ccccc3Cl)nccc12 | 190
O=C(OCN1C(=O)c2ccccc2C1=O)c1ccccc1[N+](=O)[O-] | 159 to 160
O=C1CCC(c2cccc(F)c2)(c2cccc(F)c2)CC1 | 95
CCCc1nc2c(N)nc3ccccc3c2n1CCCC1(C)OCCO1 | 184 to 186
CCOC(=O)c1c(N2CCOCC2)c2cc(Cl)ccc2n(C)c1=O | 167 to 169
COc1ccc2cc([C@H](C)C(=O)OCC(CO[N+](=O)[O-])(CO[N+](=O)[O-])[N+](=O)[O-])ccc2c1 | 69 to 71
Nc1ccc(-n2cnnc2)cc1C(F)(F)F | 196 to 198
Cn1c(C(=O)NCCCn2ccnc2)cc2ccccc21 | 125 to 129
O=C(CCCNC(=O)C(=O)c1cn2c3c(cccc13)CCC2)NOCc1ccccc1 | 88 to 90
O=C(NC1CCN(CCc2[nH]c(=O)[nH]c2-c2ccc(F)cc2)CC1)c1ccccc1 | 218 to 220
Cc1oc(-c2ccccc2)nc1CCOc1ccc(C=O)cc1 | 79 to 81
CSc1nc(C)ccc1NC(=O)CCCCCSc1nc2ccccc2[nH]1 | 138 to 140
O=C(NC(=O)c1c(F)cccc1F)Nc1ccc(SC(F)(F)C(F)Cl)cc1F (configuration not stated) | 172 to 173
CC(=O)Oc1ccc(NC(=O)c2ccc(C3OCC(SC(C)C(O)(Cn4cncn4)c4ccc(F)cc4F)CO3)cc2)cc1 (configuration not stated) | 127
Cc1cc(C(=O)N2CCC3(CC2)CSC2=C(O3)c3ccccc3C(=O)C2=O)c(C)o1 | 234 to 235
Cn1cc(-c2cccc(-n3ncc4cc(C(C)(C)C)cc(F)c4c3=O)c2CO)cc(Nc2ccc(C(C)(C)O)cn2)c1=O | 200 to 205
Cn1c(=O)c2c(nc(C=Cc3cccc(C(F)(F)F)c3)n2C)n(C)c1=O | 232 to 236
C=Cc1cc(O)cc2nc(-c3ccc(OP(=O)(OCC)OCC)c(F)c3)oc12 | 134 to 136
CC(C)(C)OC(=O)NCC1(O)CCNCC1 | 136 to 138
COc1cc2c(c(Cl)c1Cl)CCC2=O | 163 to 165
O=c1c(Cc2cccnc2)cn2c3cc(Cl)ccc3c3cc(OCCCO)cc1c32 | 137 to 139

SMILES | melting point [°C]
O=C1NCN2c3ccccc3Oc3cccc1c32 | > 300
O=c1cc(-c2ccoc2)c2ccc(Sc3cccc(-c4ccccc4)n3)cc2o1 | 175 to 178
CCCC(Oc1ccccc1COc1ccc2oc(-c3nc(C(C)(C)C)cs3)cc2c1)C(=O)O (configuration not stated) | 135 to 136
CSc1cc(C(C)(C)C)ccc1O | 160
O=S(=O)(Nc1ccccc1Oc1cccc2cccnc12)c1ccc(F)cc1 | 243 to 244
CCCCCCCCOC(=O)Nc1ccccc1C1Cc2ccccc2N1 (configuration not stated) | 99 to 102
CCONC(=O)c1nc(-c2ccc(Cl)c(OC)c2F)cc(N)c1Cl | 192 to 195
CC=CC(=O)Nc1n[nH]c2cc(C(F)(F)F)ccc12 | 208
CCOC(=O)C1=C(C)NC(C)=C(C#N)C1c1cccc2c1SC(c1ccccc1)=CC2 (configuration not stated) | 206 to 207
COc1ccc(COc2cccc(C=O)c2OCc2ccc(OC)cc2)cc1 | 92 to 93
CCN(CC)CCOc1ccc(CCNC(=O)c2ccc(-c3ccc(Cl)cc3)cc2)cc1 | 178 to 179
CC(C)c1cc(C(C)C)c(CC(=O)NS(=O)(=O)Oc2c(C(C)C)cc(CNC(=O)CN)cc2C(C)C)c(C(C)C)c1 | 193 to 195
C1=CCc2c3c(c4ccccc4c2=C1)=c1c(c2ccccc2c2ccccc12)=C3 | 276 to 278
O=C1CCC(N2CCN(c3ccccn3)CC2)CC1 | 142 to 144
c1ccc2c(NC3CCCCC3)nnc(Cc3ccncc3)c2c1 | 137 to 139
CS(=O)(=O)c1ccc(-c2cnn(-c3cccc(Cl)c3)c(=O)c2C2CCCCC2)cc1 | 85 to 90
Cc1nc(OS(=O)(=O)C(F)(F)F)c([N+](=O)[O-])c(NCC(C)(C)O)c1C | 79 to 80
Clc1ccc(Sc2ccc(-c3ccccc3)s2)cc1 | 85 to 87
CCOCc1nc2c(N)nc3cc(OCCCc4cccnc4)ccc3c2n1CC(C)(C)O | 160 to 161
O=[N+]([O-])c1c(Cl)nc2ccccc2c1NCc1ccccn1 | 179 to 182
COc1ccc(OC)c(C2OC(=O)c3c(OC)ccc(C)c32)c1 (configuration not stated) | 121 to 123
NC(=O)CC1(c2ccccc2)Oc2ccccc2O1 | 114 to 115
Cc1cc2c(cc1N1CCOCC1)OC(=O)C2C (configuration not stated) | 108 to 109
CC(C)(C)OC(=O)N1CCC(O)(c2ccc(Oc3ccc(NC(=O)c4ccc(Cl)c(Cl)c4)cc3)cc2)CC1 | 208 to 209
CCC(=O)NC1=NN(c2ccccc2)CC1 | 170 to 171

SMILES | melting point [°C]
O=C1Oc2ccccc2Sc2ccccc21 | 124
CC(C)(C)n1nc(Nc2ccccc2)c(C(N)=O)c1N | 225 to 227
C(=C\c1cc(/C=C/c2ccc3[nH]ccc3c2)n[nH]1)/c1cccc(OCc2ccccn2)c1 | 183 to 186
CCOC(OCC)c1cc(NC(c2ccccc2)(c2ccccc2)c2ccccc2)c(F)c(-c2ccc(Cl)c(OC)c2F)n1 | 177 to 180
O=S(=O)(Nc1cccc(CCOCc2ccc(-c3ccc(C(F)(F)F)cc3)cc2)c1)C(F)(F)F | 98 to 100
NC(=O)c1c[nH]c2c1ccc1c3ccccc3[nH]c12 | > 300
CC(=NO)c1ccc(C2=CCCCC2)cc1 | 154 to 156
CCOC(=O)NC(=O)CNS(=O)(=O)c1ccc(N2CCC(NC[C@H](O)c3ccc(O)c(NS(C)(=O)=O)c3)CC2)cc1 | 98 to 105
Cc1cc(CN2C(=O)C(C3=NS(=O)(=O)c4c(CN(C)S(C)(=O)=O)cccc43)=C(O)C2C(C)(C)C)ccc1F (configuration not stated) | 105 to 109
CNC(=O)C1(CCCCCCCCCCCCC2(C(=O)NS(C)(=O)=O)CC2)CC1 | 111 to 112
Cc1cc(NC(=O)C(CSC(=O)CC(C)C)Cc2ccccc2)cc(C(=O)O)c1 (configuration not stated) | 153 to 157
CON1Cc2c(cc3ccc4c(c3c2-c2ccc3c(c2)OCO3)OCO4)C1=O | 214 to 216
CCCOc1ccccc1-c1nc2nc(S(C)(=O)=O)ncc2c(=O)[nH]1 | 217 to 219
O=C(NC1CCc2[nH]c3ccc(OC(F)(F)F)cc3c2C1)OCc1ccccc1 (configuration not stated) | 123 to 126
CC1CC(=O)NN=C1c1ccc(N)c(N)c1 (configuration not stated) | 195 to 196
CC(=O)Oc1ccc2c(c1)OC(C)(c1ccccc1)O2 (configuration not stated) | 87 to 87.5
CCC(Oc1ccc(C(C)(C)CC)cc1C(C)(C)CC)C(=O)O (configuration not stated) | 89
c1ccc(CSc2nc3cnccn3n2)cc1 | 93 to 94
Cc1c(CC2CCc3c(c4ccccc4n3C)C2=O)ncn1C(c1ccccc1)(c1ccccc1)c1ccccc1 (configuration not stated) | 193 to 195
Clc1ccccc1Oc1cnccc1N1CCNCC1 | 99 to 101
CCOC(=O)C1=CNC2=C(C(=O)Nc3ccccc3)CCN2C1=O | 240 to 241
O=C(Nc1ncccn1)Nc1cccc2c1C1CCCCN1C2=O (configuration not stated) | 232
